Drawing on ChEMBL document CHEMBL3046257, “Response of sweet maize (Zea mays L.) hybrids to halosulfuron” (Crop Prot, 2008), this text covers Activity for 5 compounds.

Series [1] concerns Zea mays. Kind of series: Toxicity in Zea mays (maize) assessed as reduction in cob size relative to untreated control. Also on record: scale not given: the % may be the effect or the level left. The series is classed as organism-based. As to conditions: in vivo.
In series [2] the test system is Zea mays. Kind of series: Toxicity in Zea mays (maize) assessed as plant height relative to untreated control. The format is organism-based. As to conditions: in vivo.

The structures appear in SMILES notation.

On to `COC(=O)c1sccc1S(=O)(=O)NC(=O)Nc1nc(C)nc(OC)n1` [THIFENSULFURON-METHYL], for which, in the series on Zea mays [1], the Activity is recorded as 9%. Turning to `COc1cc(OC)nc(NC(=O)NS(=O)(=O)c2ncccc2C(=O)N(C)C)n1` [NICOSULFURON], the Activity with Zea mays [2] is 100%.

For the compound `COc1nc(C)nc(NC(=O)NS(=O)(=O)c2ccccc2CCC(F)(F)F)n1` [PROSULFURON], the Activity in the series with Zea mays [2] was 100%. As to `O=C(O)c1nc(Cl)ccc1Cl` [CLOPYRALID], the Activity in the series on Zea mays [1] amounted to 67%.

In the case of `CC(C)N1C(=O)c2ccccc2NS1(=O)=O` [BENTAZON], the Activity in the series with Zea mays [2] worked out at 100%.
